Key:
LRRK2 G2019S [1] = biological target: T1, LRRK2 G2019S (Homo sapiens, UniProt Q5S007, G2019S); assay: TR-FRET cellular assay for LRRK2 Ser935 phosphorylation, U-2 OS cells, BacMam LRRK2-GFP G2019S; type: cell-based; parameters: This high-throughput assay utilizes cells expressing full-length human LRRK2 with a C-terminal GFP tag (LRRK2-GFP); host or cells: U-2 OS, SH-SY5Y, HEK293T cells or human neural stem cells transduced with BacMam
Protocol: (§1) U-2 OS cells are maintained in growth medium (McCoy’s 5A supplemented with 10% dialyzed FBS (dFBS), 10 mM HEPES, 0.1 mM NEAA, 1 mM Sodium Pyruvate, and 100 U/mL Penicillin/100 µg/mL Streptomycin). HEK293T cells are maintained in DMEM with 10% dFBS, 10 mM HEPES, 0.1 mM NEAA and 100 U/mL Penicillin/100 µg/mL Streptomycin. SH-SY5Y cells are maintained in DMEM/F-12 medium supplemented with 10% dFBS and 100 U/mL Penicillin/100 µg/mL Streptomycin. […] GIBCO® human neural stem cells (hNSCs) were propagated as an adherent culture in StemPro® NSC SFM according to the manufacturer’s recommended protocol (Life Technologies). For BacMam transduction of U-2 OS and HEK293T, cells were harvested, mixed with various amounts of BacMam LRRK2-GFP reagent (v/v) and plated onto 6-well plates. […] Cells were assayed in 384-well format (∼20,000 cells/well) 48 hours post-transduction as above.
Transduced cells in the 384-well assay plate were incubated with indicated inhibitors (5X, 5 µL/well) for 60 to 90 minutes. During this time, 6 X lysis buffer (Life Technologies) was supplemented with 30 nM Tb-labeled anti-LRRK2 pSer935 antibody and both protease and phosphatase inhibitor cocktails (Sigma). The complete 6 X lysis buffer was added to each well (5 µL/well) and the plates were incubated at room temperature in the dark for 2 hours. […] A sigmoidal dose-response equation with varying slope was used to fit the data and generate IC50 values. Z′-factor values were calculated as: Z′-factor = 1 - [(3 × stdevno virus +3 × stdevmaxvirus)/(avgmaxvirus – avgno-virus)]. The IC50 values reported in Table 1 are the averaged numbers from three independent experiments.

LRRK2 G2019S [2] = biological target: T1, LRRK2 G2019S; assay: TR-FRET cellular assay for LRRK2 Ser935 phosphorylation, human neural stem cells, BacMam LRRK2-GFP G2019S; type: cell-based; parameters: This high-throughput assay utilizes cells expressing full-length human LRRK2 with a C-terminal GFP tag (LRRK2-GFP); host or cells: U-2 OS, SH-SY5Y, HEK293T cells or human neural stem cells transduced with BacMam; details: 10% BacMam G2019S, 90 min, Figure 4, read-out: IC50, inhibition of G2019S Ser935 phosphorylation via TR-FRET
Protocol: as §1
Transduced cells in the 384-well assay plate were incubated with indicated inhibitors (5X, 5 µL/well) for 60 to 90 minutes. During this time, 6 X lysis buffer (Life Technologies) was supplemented with 30 nM Tb-labeled anti-LRRK2 pSer935 antibody and both protease and phosphatase inhibitor cocktails (Sigma). […] Z′-factor values were calculated as: Z′-factor = 1 - [(3 × stdevno virus +3 × stdevmaxvirus)/(avgmaxvirus – avgno-virus)]. […]

T1 sequence (Q5S007 whole entry G2019S): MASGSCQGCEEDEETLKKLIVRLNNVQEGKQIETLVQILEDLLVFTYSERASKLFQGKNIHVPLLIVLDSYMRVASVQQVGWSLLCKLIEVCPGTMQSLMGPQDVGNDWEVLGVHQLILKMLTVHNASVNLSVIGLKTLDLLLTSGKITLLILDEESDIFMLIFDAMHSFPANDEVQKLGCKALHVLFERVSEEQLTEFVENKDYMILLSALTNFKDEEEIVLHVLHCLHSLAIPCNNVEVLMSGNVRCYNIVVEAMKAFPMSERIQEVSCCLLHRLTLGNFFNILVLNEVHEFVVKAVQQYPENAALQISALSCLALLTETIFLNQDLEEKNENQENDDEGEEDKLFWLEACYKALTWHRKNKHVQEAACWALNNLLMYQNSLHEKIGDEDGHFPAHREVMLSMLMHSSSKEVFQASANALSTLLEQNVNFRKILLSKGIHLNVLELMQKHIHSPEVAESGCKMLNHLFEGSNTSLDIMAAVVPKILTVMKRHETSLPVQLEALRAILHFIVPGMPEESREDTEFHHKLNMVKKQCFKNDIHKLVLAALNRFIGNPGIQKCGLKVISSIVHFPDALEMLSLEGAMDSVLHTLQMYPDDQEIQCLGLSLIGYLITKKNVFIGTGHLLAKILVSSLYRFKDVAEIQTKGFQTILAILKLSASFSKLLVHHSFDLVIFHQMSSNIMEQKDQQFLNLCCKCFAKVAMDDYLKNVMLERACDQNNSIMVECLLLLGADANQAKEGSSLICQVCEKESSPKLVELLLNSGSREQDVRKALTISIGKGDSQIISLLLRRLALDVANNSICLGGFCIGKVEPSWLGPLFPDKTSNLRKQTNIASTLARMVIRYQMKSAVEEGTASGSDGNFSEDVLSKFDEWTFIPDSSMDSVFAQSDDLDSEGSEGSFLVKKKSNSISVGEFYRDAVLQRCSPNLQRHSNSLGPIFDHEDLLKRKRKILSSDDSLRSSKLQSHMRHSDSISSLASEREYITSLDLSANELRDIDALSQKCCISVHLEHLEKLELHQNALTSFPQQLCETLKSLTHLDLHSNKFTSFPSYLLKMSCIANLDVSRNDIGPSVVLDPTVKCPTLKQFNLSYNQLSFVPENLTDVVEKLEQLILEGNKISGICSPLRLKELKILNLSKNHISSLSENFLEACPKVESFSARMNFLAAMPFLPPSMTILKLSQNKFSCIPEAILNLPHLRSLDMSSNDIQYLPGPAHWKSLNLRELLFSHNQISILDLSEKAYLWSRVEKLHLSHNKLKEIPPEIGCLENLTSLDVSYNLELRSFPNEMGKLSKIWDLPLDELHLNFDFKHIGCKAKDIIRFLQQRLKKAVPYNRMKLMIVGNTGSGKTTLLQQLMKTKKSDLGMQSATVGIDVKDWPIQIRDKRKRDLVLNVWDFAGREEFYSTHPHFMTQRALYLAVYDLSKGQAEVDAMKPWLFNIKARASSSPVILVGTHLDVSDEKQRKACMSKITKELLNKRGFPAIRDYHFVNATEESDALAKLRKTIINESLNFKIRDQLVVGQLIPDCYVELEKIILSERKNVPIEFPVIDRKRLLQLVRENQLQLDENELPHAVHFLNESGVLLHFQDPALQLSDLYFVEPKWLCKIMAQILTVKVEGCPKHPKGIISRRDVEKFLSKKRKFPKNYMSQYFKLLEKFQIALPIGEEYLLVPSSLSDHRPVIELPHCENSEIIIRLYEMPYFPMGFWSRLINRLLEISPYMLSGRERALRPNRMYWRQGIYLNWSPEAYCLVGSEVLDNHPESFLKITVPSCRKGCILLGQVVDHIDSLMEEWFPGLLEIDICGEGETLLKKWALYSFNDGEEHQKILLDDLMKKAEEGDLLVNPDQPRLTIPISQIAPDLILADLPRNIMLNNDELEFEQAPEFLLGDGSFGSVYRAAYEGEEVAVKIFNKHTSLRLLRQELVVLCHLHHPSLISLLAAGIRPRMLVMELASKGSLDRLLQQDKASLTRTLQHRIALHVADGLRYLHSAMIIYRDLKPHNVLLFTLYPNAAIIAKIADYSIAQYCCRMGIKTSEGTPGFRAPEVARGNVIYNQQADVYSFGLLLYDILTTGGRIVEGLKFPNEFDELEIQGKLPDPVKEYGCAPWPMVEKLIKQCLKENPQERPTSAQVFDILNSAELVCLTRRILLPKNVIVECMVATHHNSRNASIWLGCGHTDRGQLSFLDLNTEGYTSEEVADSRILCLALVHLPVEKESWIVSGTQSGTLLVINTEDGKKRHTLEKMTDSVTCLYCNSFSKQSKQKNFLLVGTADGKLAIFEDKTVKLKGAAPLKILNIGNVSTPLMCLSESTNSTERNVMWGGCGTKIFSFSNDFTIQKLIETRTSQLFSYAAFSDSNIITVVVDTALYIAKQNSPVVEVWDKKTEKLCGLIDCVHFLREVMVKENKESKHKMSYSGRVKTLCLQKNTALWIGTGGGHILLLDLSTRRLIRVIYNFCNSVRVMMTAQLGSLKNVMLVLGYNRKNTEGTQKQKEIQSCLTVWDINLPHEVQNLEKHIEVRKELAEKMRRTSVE

COc1cc(C(=O)N2CCC(N3CCN(C)CC3)CC2)ccc1Nc1ncc2c(n1)N(C)c1ccccc1C(=O)N2C [LRRK2-IN-1] gave an IC50 (LRRK2 G2019S [1]; 20% BacMam G2019S, 90 min, Figure 2B, read-out: IC50, inhibition of TR-FRET signal (Ser935 phosphorylation)) of 30 nM, an IC50 (LRRK2 G2019S [1]; G2019S, +/- SD, three independent experiments, * = partial inhibition, read-out: IC50, TR-FRET cell-based assay for Ser935 phosphorylation of LRRK2) of 50 nM and an IC50 (LRRK2 G2019S [2]) of 30 nM.
